Experimental data as given in patent US12391768B2, “Antibodies to ticagrelor and methods of use” (MEDIMMUNE LIMITED, priority 2014, dated 2025).
Read-outs that look alike come from different tables or passages of the source.

Columns and labels:
[1] = target: TICA0053 Fab; assay: HTRF competition binding selectivity assay, TICA0053 His-Fab; set-up: species or system human; conditions: first series (Table 2), not DMSO normalised; read-out: IC50 (uM) for inhibition of biotinylated ticagrelor binding to TICA0053 his-Fab
Protocol: (§1) Total Binding control wells were set up which contained all of the assay components above except that 5 ul assay buffer was added in place of the test selectivity compound addition. Negative Binding control wells were set up which contained all of the assay components included in the Total Binding control wells except that 5ul assay buffer was added in place of the His-Fab addition. Test compound serial titrations were either ½ or ⅓ depending on the particular experiment and top final assay compound concentrations were optimized on a compound specific basis. The concentration of biotinylated ticagrelor and His-Fab was optimized on a Fab specific basis in separate experiments. For the four Fabs investigated at the end of the lead isolation phase (TICA0010, TICA0049, TICA0053 and TICA0072) the final assay reagent concentrations used are set out in Table 1 below:
(§2) For the two Fabs investigated at the end of the lead optimization phase (TICA0162 and TICA0212) the final assay reagent concentrations used were 5nM biotinylated ticagrelor and 1 nM His Fab in both cases. […] In order to enable subsequent normalization of data to correct for any such vehicle related effects parallel titrations of DMSO alone were included in most experiments in which the final assay DMSO concentrations mirrored those of the test compound serial dilutions. At the end of the set up procedure that assay was incubated for 3hrs at RT before being read on an Envision plate reader using a standard read protocol.
(§3) The negative ratio value used in the calculation of % Delta F was derived from the Negative Binding control wells. % Delta F values were then used to calculate % Specific Binding values according to the equation below: Specific Binding (%)={(Sample Delta F−Negative Binding Delta F)/(Total Binding Delta F−Negative Binding Delta F)}×100
(§4) For standard calculations of % Specific Binding Total Binding Delta F was taken from Total Binding control wells which contained all of the aforementioned components of the assay but without inclusion of any competing test compound.
(§5) In those experiments where DMSO normalization was applied DMSO normalised % Specific Binding was calculated essentially according to the equation above except that in this case Total Binding Delta F was taken from wells containing all of the components in the Total Binding control wells as well as DMSO at a concentration equivalent to that in the relevant sample well.

[2] = target: TICA0162 Fab; assay: HTRF competition binding selectivity assay, TICA0162 His-Fab; set-up: species or system human; conditions: Table 7, DMSO normalised; 5 nM biotinylated ticagrelor, 1 nM His Fab; read-out: IC50 (uM) for inhibition of biotinylated ticagrelor binding to TICA0162 Fab
Protocol: as §1
as §2, with “protocol. […]” for “protocol.”
as §5

[3] = set-up: species or system mice; conditions: mouse, in vivo
Protocol: The method was optimized based on a previous published method [Sillen H., et al., J Chromatogr B Analyt Technol Biomed Life Sci. 2011 Aug. 1; 879(23): 2315-22]. Dialysis membranes (Spectrum Laboratories, Inc) which allows molecules with a mass below 6 to 8 kDa to pass through, was soaked in ELGA water for 10 to 15 min and placed between the dialysis plate halves (in house made). Plasma, 130 μL, was added to one side of the dialysis plate and 130 μL phosphate buffer, pH 7.0, was added to the opposite side. The wells on both sides were sealed with lids and aluminum plates were put on top on each side of the plate to avoid leakage. The plate was then placed vertical on an orbital shaker at 100 rpm/min at 37° C. for 24 h. The dialysis was terminated by transferring of 50 μL retentate from plasma side and 75 μL dialysate from buffer side to a protein LoBind PCR clean 96 deep-well plate containing 150 μL respective 75 μL internal standard (D7-ZD6140) in acetonitrile. The plate was mixed for 1 min and then centrifuged for 20 min, 1500× g at 4° C. After centrifugation 50 μL supernatant from the precipitated retentate was transferred and diluted with 50 μL ELGA H2O before LC-MS/MS (Acquity Ultra Performance LC coupled to a Xevo TQ-S mass spectrometer, Waters) analysis. No quality control samples were used in the analysis. […]

[4] = Total plasma concentration of ticagrelor and TAM (LC-MS/MS); type: in vivo, mice
Protocol: Blood samples were collected in tubes with EDTA anticoagulant and centrifuged for 5 min at 10000× g at room temperature to prepare plasma. The plasma concentration of ticagrelor and TAM were determined by protein precipitation and liquid chromatography with tandem mass spectrometry (LC-MS/MS) as described in published method [Sillén H., et al., J Chromatogr B Analyt Technol Biomed Life Sci 2010; 878: 2299-306] with the following deviations. Plasma, 50 μL, was protein precipitated with 180 μl internal standard (D7-ZD6140) in acetonitrile. The liquid chromatographic system and mass spectrometer was an Acquity Ultra Performance LC coupled to a Xevo TQ-S mass spectrometer from Waters. Chromatographic separation was achieved on an Aquity UPLC® BEH C18 column (2.1×50 mm, particle size 1.7 um). Negative electrospray ionization was utilized. Eluent A was water with 10 mmol/L ammonium acetate, pH5 and eluent B was acetonitrile with 10 mmol/L ammonium acetate. Injection volume was 1 to 5 μL and the analytical gradient started with 4% B, increasing to 95% in 1.5 min, remaining until 2.3 min, before returning to initial conditions within 2.4 min followed by 0.3 min re-equilibration. No quality control samples were used in the analysis. The lower limit of quantification (LLOQ) was 0.005 μmol/L and the calibration range was 0.005 to 15.0 μM.
The total plasma concentrations of ticagrelor and TAM in presence of TICA0212/MEDI2452 were determined by adding 1% formic acid (FA: Sample, 1:5) followed by protein precipitation and LC-MS/MS as described above. Formic acid was added to the sample to facilitate dissociation of ticagrelor and TICA0212/MEDI2452.

[5] = target: TICA0049 Fab; assay: HTRF competition binding selectivity assay, TICA0049 His-Fab; set-up: species or system human
Protocol: as §1, §2, §3, §4, §5
In a second series of experiments further selectivity data was generated for TICA0049 and TICA0072 Fabs in which a subset of four of the twelve compounds listed in FIG. 4 were retested along with ticagrelor, TAM and TIM and several adenosine related compounds. Here, in a refinement to the earlier investigations in Table 2, experiments were designed in order to enable normalisation of percent specific binding values to correct for any non-specific vehicle related effects due to DMSO. Example plotted data from this second series of experiments is shown in FIG. 5A-F along with tabulated IC50 values in Table 3.

CCCSc1nc(N[C@@H]2C[C@H]2c2ccc(F)c(F)c2)c2nnn([C@@H]3C[C@H](OCCO)[C@@H](O)[C@H]3O)c2n1 [Ticagrelor, (1S,2S,3R,5S)-3-[7-{[(1R,2S)-2-(3,4-difluorophenyl)cyclopropyl]amino}-5-(propylthio)-3H-[1,2,3]triazolo[4,5-d]pyrimidin-3-yl]-5-(2-hydroxyethoxy)cyclopentane-1,2-diol]
IC50 [1]: 0.109 µM | IC50 [2]: 0.023 µM | mean free plasma concentration of ticagrelor [3]: 4.7 nM | ticagrelor plasma exposure, average ([4]; Example 11, after termination of the ticagrelor infusion, i.v., mice): 1.4 µM | mean total plasma concentration ([4]; Example 12, end of ticagrelor infusion 300 μg/kg/min 20 min, mice): 7.6 µM | mean total plasma concentration at time of tail cut ([4]; Example 12, vehicle treated mice, t=30 minutes): 2.4 µM | IC50 ([5]; first series (Table 2), not DMSO normalised, read-out: IC50 (uM) for inhibition of biotinylated ticagrelor binding to TICA0049 his-Fab): 0.257 µM | IC50 ([5]; second series (Table 3), DMSO normalised, read-out: IC50 in competition binding selectivity studies, TICA0049): 0.368 µM
